Reference: patent US20250215039A1, “NUCLEOSIDES FOR TREATING CANCER” (PRIMEFOUR THERAPEUTICS, INC., priority 2022, published 2025)
Read-outs that look alike come from different tables or passages of the source.

System: cancer cell lines
Test: Cancer cell proliferation activity (CellTiterGlo, 72 h)
Format: cell-based
Conditions: 72 h, 72 h, read-out: IC50 cell proliferation
Method in brief: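 Cells seeded overnight at 37 °C, then dosed with compound at 0.1% final DMSO and incubated 72 h at 37 °C (5% or 10% CO2 by medium).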

CCC[C@]1(CO)O[C@@H](n2cnc3c(N)nc(F)nc32)[C@H](O)[C@@H]1O [compound 195, (2R,3S,4R,5R)-5-(6-amino-2-fluoro-9H-purin-9-yl)-2-(hydroxymethyl)-2-propyltetrahydrofuran-3,4-diol]
IC50 (5637 (bladder)): 230 nM | IC50 (CLS439 (bladder)): 400 nM | IC50 (HS729 (muscle)): 150 nM | IC50 (J82 (bladder)): 160 nM | IC50 (JAR (placenta)): 100 nM | IC50 (MT3 (breast)): 120 nM | IC50 (PANCI (pancreas)): 2250 nM | IC50 (PC3 (prostate)): 220 nM | IC50 (RD (muscle)): 210 nM | IC50 (T24 (bladder)): 300 nM | IC50 (Homo sapiens, 22Rv1, 72 h, 22RV1 (prostate)): 540 nM | IC50 (Homo sapiens, 786-0, 72 h, 786O (kidney)): 110 nM | IC50 (Homo sapiens, A204, 72 h, A204 (muscle)): 140 nM | IC50 (Homo sapiens, A549, 72 h, A549 (lung)): 60 nM | IC50 (Homo sapiens, A673, 72 h, A673 (bone)): 700 nM | IC50 (Homo sapiens, A2780, 72 h, A2780 (ovary)): 390 nM | IC50 (Homo sapiens, A-375, 72 h, A375 (skin)): 110 nM | IC50 (Homo sapiens, A-431, 72 h, A431 (skin)): 70 nM | IC50 (Homo sapiens, ACHN, ACHN (kidney)): 90 nM | IC50 (Homo sapiens, ASPC1, 72 h, ASPC1 (pancreas)): 130 nM | IC50 (Homo sapiens, BT-20, 72 h, BT20 (breast)): 110 nM | IC50 (Homo sapiens, BXPC-3, 72 h, BXPC3 (pancreas)): 80 nM | IC50 (Homo sapiens, C-33-A, C33A (endometrial)): 380 nM | IC50 (Homo sapiens, CAKI-1, 72 h, CAKI1 (kidney)): 20 nM | IC50 (Homo sapiens, COLO 205, 72 h, COLO205 (colon)): 330 nM | IC50 (Homo sapiens, COLO-678, 72 h, COLO678 (colon)): 100 nM | IC50 (Homo sapiens, Ca-Ski, CASKI (endometrial)): 50 nM | IC50 (Homo sapiens, Caco-2, 72 h, CACO2 (colon)): 280 nM | IC50 (Homo sapiens, Calu-6, 72 h, CALU6 (lung)): 40 nM | IC50 (Homo sapiens, DLD-1, 72 h, DLD1 (colon)): 510 nM | IC50 (Homo sapiens, DU-145, 72 h, DU145 (prostate)): 30 nM | IC50 (Homo sapiens, EFO-21, 72 h, EFO21 (ovary)): 150 nM | IC50 (Homo sapiens, EJ-28, 72 h, EJ28 (bladder)): 140 nM | IC50 (Homo sapiens, Granta-519, 72 h, GRANTA-519 (hematological)): 160 nM | IC50 (Homo sapiens, HCT-15, 72 h, HCT15 (colon)): 290 nM | IC50 (Homo sapiens, HCT-116, 72 h, HCT116 (colon)): 250 nM | IC50 (Homo sapiens, HEK293, 72 h, HEK293 (kidney)): 200 nM | IC50 (Homo sapiens, HL-60, 72 h, HL-60 (hematological)): 100 nM | IC50 (Homo sapiens, HT-29, 72 h, HT29 (colon)): 260 nM | IC50 (Homo sapiens, HT-1080, 72 h, HT1080 (connective tissue)): 270 nM | IC50 (Homo sapiens, HeLa, HELA (endometrial)): 80 nM | IC50 (Homo sapiens, HepG2, 72 h, HEPG2 (liver)): 170 nM | IC50 (Homo sapiens, Hs-578T, HS578T (breast)): 60 nM | IC50 (Homo sapiens, IGROV-1, 72 h, IGROV1 (ovary)): 80 nM | IC50 (Homo sapiens, IMR-90, 72 h, IMR90 (lung)): 60 nM | IC50 (Homo sapiens, JEG-3, 72 h, JEG3 (placenta)): 100 nM | IC50 (Homo sapiens, JIMT-1, 72 h, JIMT1 (breast)): 30 nM | IC50 (Homo sapiens, K562, 72 h, K-562 (hematological)): 530 nM | IC50 (Homo sapiens, Kasumi 1, 72 h, KASUMI-1 (hematological)): 20 nM | IC50 (Homo sapiens, L-363, 72 h, L-363 (hematological)): 90 nM | IC50 (Homo sapiens, LoVo, LOVO (colon)): 30 nM | IC50 (Homo sapiens, MCF7, 72 h, MCF7 (breast)): 390 nM | IC50 (Homo sapiens, MDA-MB-231, 72 h, MDAMB231 (breast)): 240 nM | IC50 (Homo sapiens, MDA-MB-435, 72 h, MDAMB435 (skin)): 320 nM | IC50 (Homo sapiens, MDA-MB-436, 72 h, MDAMB436 (breast)): 80 nM | IC50 (Homo sapiens, MDA-MB-468, 72 h, MDAMB468 (breast)): 70 nM | IC50 (Homo sapiens, MG-63, 72 h, MG63 (bone)): 1730 nM | IC50 (Homo sapiens, MHH-ES-1, 72 h, MHHES1 (bone)): 170 nM | IC50 (Homo sapiens, MIA PaCa-2, 72 h, MIAPACA2 (pancreas)): 1750 nM | IC50 (Homo sapiens, MINO, MINO (hematological)): 20 nM | IC50 (Homo sapiens, MV4-11, 72 h, MV4-11 (hematological)): 20 nM | IC50 (Homo sapiens, NCI-H23, 72 h, NCI-H23 (lung)): 220 nM | IC50 (Homo sapiens, NCI-H82, 72 h, NCIH82 (lung)): 170 nM | IC50 (Homo sapiens, NCI-H292, 72 h, NCIH292 (lung)): 150 nM | IC50 (Homo sapiens, NCI-H460, 72 h, NCIH460 (lung)): 170 nM | IC50 (Homo sapiens, OVCAR-3, 72 h, OVCAR3 (ovary)): 80 nM | IC50 (Homo sapiens, OVCAR-4, 72 h, OVCAR4 (ovary)): 150 nM | IC50 (Homo sapiens, PLC-PRF-5, 72 h, PLCPRF5 (liver)): 1040 nM | IC50 (Homo sapiens, Panc1005, 72 h, PANC1005 (pancreas)): 180 nM | IC50 (Homo sapiens, Ramos, RAMOS (hematological)): 140 nM | IC50 (Homo sapiens, SAOS-2, 72 h, SAOS2 (bone)): 100 nM | IC50 (Homo sapiens, SF-268, 72 h, SF268 (brain)): 300 nM | IC50 (Homo sapiens, SF-295, 72 h, SF295 (brain)): 220 nM | IC50 (Homo sapiens, SK-BR-3, 72 h, SKBR3 (breast)): 30 nM | IC50 (Homo sapiens, SK-HEP1, 72 h, SKHEP1 (liver)): 60 nM | IC50 (Homo sapiens, SK-LMS-1, 72 h, SKLMS1 (uterus)): 140 nM | IC50 (Homo sapiens, SK-MEL-5, 72 h, SKMEL5 (skin; SKMELS [sic] in Table 9E)): 90 nM | IC50 (Homo sapiens, SK-MEL-28, 72 h, SKMEL28 (skin)): 100 nM | IC50 (Homo sapiens, SK-N-AS, SKNAS (brain)): 120 nM | IC50 (Homo sapiens, SK-N-SH, SKNSH (brain)): 80 nM | IC50 (Homo sapiens, SK-OV-3, 72 h, SKOV3 (ovary)): 90 nM | IC50 (Homo sapiens, SNB-75, 72 h, SNB75 (brain)): 220 nM | IC50 (Homo sapiens, SU-DHL10, 72 h, SU-DHL-10 (hematological)): 210 nM | IC50 (Homo sapiens, SU-DHL-6, 72 h, SU-DHL-6 (hematological)): 60 nM | IC50 (Homo sapiens, SW-620, 72 h, SW620 (colon)): 80 nM | IC50 (Homo sapiens, TE-671, 72 h, TE671 (muscle)): 730 nM | IC50 (Homo sapiens, THP-1, 72 h, THP-1 (hematological)): 200 nM | IC50 (Homo sapiens, U2OS, U20S (bone; U2OS in Table 9E)): 70 nM | IC50 (Homo sapiens, U-87 MG, U87MG (brain)): 150 nM | IC50 (Homo sapiens, UMUC3, 72 h, UMUC3 (bladder)): 190 nM | IC50 (Homo sapiens, UO-31, 72 h, UO31 (kidney)): 50 nM | IC50 (Homo sapiens, WSU-NHL, WSU-NHL (hematological)): 40 nM | IC50 (NCI-H358M, NCIH358M (lung)): 140 nM | IC50 (PBMC, PBMC (hematological)): 20 nM | IC50 (RD-ES, RDES (bone)): 40 nM
